Measured values: paper PMC10746543, “Design principles for cyclin K molecular glue degraders” (Nature Chemical Biology, 2023)
Values joined by “and” are separate entries in the source; they are usually repeats but may differ in a detail not shown here. Equal entries are not always repeated. Where two headings read alike, the source gives them in different places.

Experiments:
CDK12–cyclin K and DDB1 = target: T1, CDK12–cyclin K and DDB1 (Homo sapiens, UniProt Q16531+Q9NYV4, K965R); assay: TR-FRET ternary complex formation assay (compound titration); assay type: binding; conditions: for TR-FRET signal at compound concentration: replicate titrations
T1 construct: His6–CDK12 (a.a. 713–1,052); full-length or beta-propeller B domain deletion (ΔBPB: a.a. 396–705 deleted) constructs of His6–DDB1ΔBPB, StrepII–Avi–DDB1, or His6–Spy–DDB1; made in house; host or cells: Trichoplusia ni High Five insect cells (baculovirus)
T1 sequence (Q9NYV4 713-1052 K965R): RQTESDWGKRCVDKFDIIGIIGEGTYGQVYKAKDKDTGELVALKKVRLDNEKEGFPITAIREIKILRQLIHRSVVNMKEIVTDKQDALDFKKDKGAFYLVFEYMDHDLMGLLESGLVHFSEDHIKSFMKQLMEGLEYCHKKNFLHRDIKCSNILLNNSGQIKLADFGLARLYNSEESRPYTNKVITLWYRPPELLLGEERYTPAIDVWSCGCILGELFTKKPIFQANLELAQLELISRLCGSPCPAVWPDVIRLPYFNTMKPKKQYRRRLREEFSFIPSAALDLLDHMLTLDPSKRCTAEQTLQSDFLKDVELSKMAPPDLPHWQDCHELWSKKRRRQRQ
T1 sequence (O75909 1-267 partner): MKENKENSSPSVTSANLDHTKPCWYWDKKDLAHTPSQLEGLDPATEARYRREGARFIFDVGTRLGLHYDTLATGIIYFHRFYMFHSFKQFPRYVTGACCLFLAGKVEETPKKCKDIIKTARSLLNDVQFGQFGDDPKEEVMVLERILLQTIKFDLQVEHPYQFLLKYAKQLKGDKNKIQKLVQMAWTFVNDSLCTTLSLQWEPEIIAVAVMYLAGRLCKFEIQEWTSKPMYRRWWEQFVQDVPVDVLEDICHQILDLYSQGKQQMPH
T1 sequence (Q16531 whole entry): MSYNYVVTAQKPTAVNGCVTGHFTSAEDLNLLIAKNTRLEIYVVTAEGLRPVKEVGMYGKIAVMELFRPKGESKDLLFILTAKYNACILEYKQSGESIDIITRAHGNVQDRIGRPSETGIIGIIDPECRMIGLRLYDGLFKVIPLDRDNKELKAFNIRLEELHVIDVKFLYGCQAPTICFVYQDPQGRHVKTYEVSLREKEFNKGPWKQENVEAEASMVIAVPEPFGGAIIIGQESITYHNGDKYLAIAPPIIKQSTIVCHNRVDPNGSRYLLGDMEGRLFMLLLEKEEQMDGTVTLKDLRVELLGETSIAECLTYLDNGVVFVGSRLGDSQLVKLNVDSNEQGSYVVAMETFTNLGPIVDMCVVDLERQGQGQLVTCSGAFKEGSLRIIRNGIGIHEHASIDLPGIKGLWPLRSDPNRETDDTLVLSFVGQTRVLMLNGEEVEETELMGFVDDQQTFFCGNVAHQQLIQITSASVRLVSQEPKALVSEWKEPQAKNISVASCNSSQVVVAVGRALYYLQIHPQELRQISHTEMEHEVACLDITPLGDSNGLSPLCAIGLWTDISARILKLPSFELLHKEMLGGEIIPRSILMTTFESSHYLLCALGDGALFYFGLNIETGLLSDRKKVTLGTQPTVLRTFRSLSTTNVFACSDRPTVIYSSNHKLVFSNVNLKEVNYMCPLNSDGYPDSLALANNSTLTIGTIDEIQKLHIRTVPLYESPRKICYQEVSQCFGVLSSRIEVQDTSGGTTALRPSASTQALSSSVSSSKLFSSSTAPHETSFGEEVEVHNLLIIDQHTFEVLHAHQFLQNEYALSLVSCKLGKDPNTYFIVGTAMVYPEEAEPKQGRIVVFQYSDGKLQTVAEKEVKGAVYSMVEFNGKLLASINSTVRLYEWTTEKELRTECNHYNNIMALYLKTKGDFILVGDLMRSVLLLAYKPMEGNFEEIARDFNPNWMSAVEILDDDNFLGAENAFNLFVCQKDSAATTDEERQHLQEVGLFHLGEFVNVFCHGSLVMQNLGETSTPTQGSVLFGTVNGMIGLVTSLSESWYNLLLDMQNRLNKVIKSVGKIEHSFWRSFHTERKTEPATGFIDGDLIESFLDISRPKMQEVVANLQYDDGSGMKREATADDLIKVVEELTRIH
Method in brief: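 Background fluorescence is reduced by reading 70 μs after excitation, and complex formation is followed as the 520:490 nm fluorescence ratio.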

[1] = system: cyclin K–eGFP degradation reporter; assay: Cyclin K reporter stability analysis (dual-color cyclin K–eGFP reporter); assay type: cell-based, human
Method in brief: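 HEK293T–Cas9 cells carrying the cyclin K–eGFP reporter were seeded at 1 × 10^6 ml^−1 and exposed to drug or DMSO for 5 h. Flow cytometry gave geometric means of eGFP and mCherry in round, mCherry-positive cells. The eGFP/mCherry ratio was normalized to the mean of three DMSO controls.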

HEK293T cells = assay: Drug sensitivity assay (CellTiter-Glo viability) with or without MLN4924 pretreatment; assay type: cell-based, human; conditions: Supplementary Table 2; for EC50: Homo sapiens, HEK-293T, HEK293T viability, 72 h, compound alone, read-out: Cellular assays EC50; for Toxicity rescue: MLN4924-mediated cytotoxicity rescue, 10 µM used where n.d.
Method in brief: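 First, cells (HEK293T–Cas9, 0.15 × 10^6 ml^−1) are exposed to DMSO or 100 nM MLN4924. Next, drugs follow at 2 h. Finally, CellTiter-Glo is read at day 3 and normalised to DMSO.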

[2] = compound concentration 0.468 nM
[3] = compound concentration 7.92001 nM
[4] = compound concentration 15.84 nM
[5] = compound concentration 30.96 nM
[6] = compound concentration 62.6401 nM
[7] = compound concentration 125.28 nM
[8] = compound concentration 244.8 nM
[9] = compound concentration 993.601 nM
[10] = compound concentration 2001.6 nM
[11] = in vitro complex formation, 50 nM CDK12–cyclin K, 100 nM DDB1, text and figures, read-out: TR-FRET EC50
[12] = sheet MOESM7, read-out: log TR-FRET EC50 (converted)
[13] = source data sheet correlations, read-out: TR-FRET EC50
[14] = source data sheet correlations, read-out: DC50
[15] = Supplementary Table 2, read-out: TR-FRET EC50 TR-FRET
[16] = compound concentration 79.2001 nM
[17] = compound concentration 158.4 nM
[18] = compound concentration 309.6 nM
[19] = compound concentration 626.401 nM
[20] = compound concentration 1252.8 nM
[21] = compound concentration 9936.01 nM
[22] = compound concentration 20016 nM
[23] = Supplementary Table 2, HEK293T cycK-eGFP reporter, 5 h, read-out: Cellular assays DC50

| TR-FRET signal at compound concentration (CDK12–cyclin K and DDB1; [2]) | TR-FRET signal at compound concentration (CDK12–cyclin K and DDB1; compound concentration 2.16 nM) | TR-FRET signal at compound concentration (CDK12–cyclin K and DDB1; compound concentration 3.6 nM) | TR-FRET signal at compound concentration (CDK12–cyclin K and DDB1; [3]) | TR-FRET signal at compound concentration (CDK12–cyclin K and DDB1; [4]) | TR-FRET signal at compound concentration (CDK12–cyclin K and DDB1; [5]) | TR-FRET signal at compound concentration (CDK12–cyclin K and DDB1; [6]) | TR-FRET signal at compound concentration (CDK12–cyclin K and DDB1; [7]) | TR-FRET signal at compound concentration (CDK12–cyclin K and DDB1; [8]) | TR-FRET signal at compound concentration (CDK12–cyclin K and DDB1; [9]) | TR-FRET signal at compound concentration (CDK12–cyclin K and DDB1; [10]) | EC50 (CDK12–cyclin K and DDB1; [11]) | EC50 (CDK12–cyclin K and DDB1; [12]) | EC50 (CDK12–cyclin K and DDB1; [13]) | DC50 [1, 14] | EC50 (CDK12–cyclin K and DDB1; [15]) | TR-FRET signal, individual replicate (CDK12–cyclin K and DDB1; compound concentration 4.68 nM) | TR-FRET signal, individual replicate (CDK12–cyclin K and DDB1; compound concentration 21.6 nM) | SMILES | EC50 (HEK293T cells) | Toxicity rescue (HEK293T cells) | also measured |
| --- | --- | --- | --- | --- | --- | --- | --- | --- | --- | --- | --- | --- | --- | --- | --- | --- | --- | --- | --- | --- | --- |
| 0.3264 and 0.326 | 0.4029 and 0.3893 | 0.5395 and 0.5039 | 0.8326 and 0.7539 | 1.268 and 1.146 | 1.86 and 1.701 | 2.3803 and 2.291 | 2.963 and 2.837 | 3.2576 and 3.227 | 3.4627 and 3.352 | 3.462 and 3.373 | 36 ± 1 nM | 35.9 nM | 35.9 nM | 217 nM |  |  |  | CC[C@H](CO)Nc1nc(NCCCc2cccc(C)n2)c2ncn(C(C)C)c2n1 [DS69] | 864 nM | 599% |  |
| 0.3354 and 0.3368 | 0.4163 and 0.4021 | 0.5886 and 0.5847 | 0.9073 and 0.903 | 1.493 and 1.552 | 2.297 and 2.228 | 3.049 and 3.013 | 3.561 and 3.406 | 3.933 and 3.877 | 4.034 and 4.0558 | 4.271 and 4.04 | 31 ± 1 nM | 30.5 nM | 30.5 nM | 219 nM |  |  |  | CCc1cccc(CCCNc2nc(N[C@H](CC)CO)nc3c2ncn3C(C)C)c1 [DS67] | 517 nM | 819% |  |

More lines, now with the values behind:

| SMILES | TR-FRET signal at compound concentration (CDK12–cyclin K and DDB1; [2]) | TR-FRET signal at compound concentration (CDK12–cyclin K and DDB1; compound concentration 2.16 nM) | TR-FRET signal at compound concentration (CDK12–cyclin K and DDB1; compound concentration 3.6 nM) | TR-FRET signal at compound concentration (CDK12–cyclin K and DDB1; [3]) | TR-FRET signal at compound concentration (CDK12–cyclin K and DDB1; [4]) | TR-FRET signal at compound concentration (CDK12–cyclin K and DDB1; [5]) | TR-FRET signal at compound concentration (CDK12–cyclin K and DDB1; [6]) | TR-FRET signal at compound concentration (CDK12–cyclin K and DDB1; [7]) | TR-FRET signal at compound concentration (CDK12–cyclin K and DDB1; [8]) | TR-FRET signal at compound concentration (CDK12–cyclin K and DDB1; [9]) | TR-FRET signal at compound concentration (CDK12–cyclin K and DDB1; [10]) | EC50 (CDK12–cyclin K and DDB1; [11]) | EC50 (CDK12–cyclin K and DDB1; [12]) | EC50 (CDK12–cyclin K and DDB1; [13]) | DC50 [1, 14] | EC50 (CDK12–cyclin K and DDB1; [15]) | TR-FRET signal, individual replicate (CDK12–cyclin K and DDB1; compound concentration 4.68 nM) | TR-FRET signal, individual replicate (CDK12–cyclin K and DDB1; compound concentration 21.6 nM) | EC50 (HEK293T cells) | Toxicity rescue (HEK293T cells) | also measured |
| --- | --- | --- | --- | --- | --- | --- | --- | --- | --- | --- | --- | --- | --- | --- | --- | --- | --- | --- | --- | --- | --- |
| CC[C@H](CO)Nc1nc(NCC2CCCCC2)c2ncn(C(C)C)c2n1 [DS12] |  |  |  |  |  |  |  |  |  |  |  |  |  |  |  | 774 nM | 0.1383 and 0.1554 | 0.1534 and 0.1726 | > 10000 nM | 0% | TR-FRET signal, individual replicate (CDK12–cyclin K and DDB1; compound concentration 36 nM): 0.171 and 0.1959; TR-FRET signal, individual replicate (CDK12–cyclin K and DDB1; [16]): 0.2152 and 0.2381; TR-FRET signal, individual replicate (CDK12–cyclin K and DDB1; [17]): 0.2801 and 0.3063; TR-FRET signal, individual replicate (CDK12–cyclin K and DDB1; [18]): 0.3618 and 0.4127; TR-FRET signal, individual replicate (CDK12–cyclin K and DDB1; [19]): 0.3596 and 0.5492; TR-FRET signal, individual replicate (CDK12–cyclin K and DDB1; [20]): 0.6021 and 0.6861; TR-FRET signal, individual replicate (CDK12–cyclin K and DDB1; compound concentration 2448 nM): 0.7207 and 0.8094; TR-FRET signal, individual replicate (CDK12–cyclin K and DDB1; [21]): 0.7638 and 0.9453; TR-FRET signal, individual replicate (CDK12–cyclin K and DDB1; [22]): 0.8451 and 0.9714; DC50 [1, 23]: > 10000 nM |
| CC[C@@H](CO)Nc1nc(NCc2ccc(-c3ccccn3)cc2)c2ncn(C(C)C)c2n1 [DS28, reference compound] |  |  |  |  |  |  |  |  |  |  |  |  |  |  | 27 nM |  |  |  | 221 nM | 610% | TR-FRET signal at compound concentration 0.468 nM (CDK12–cyclin K and DDB1; compound concentration 0.468 nM, raw titration data): 0.2434 and 0.2416 and 0.2052; TR-FRET signal at compound concentration 2.16 nM (CDK12–cyclin K and DDB1; compound concentration 2.16 nM, raw titration data): 0.3117 and 0.3133 and 0.2621; TR-FRET signal at compound concentration 3.6 nM (CDK12–cyclin K and DDB1; compound concentration 3.6 nM, raw titration data): 0.4303 and 0.4364 and 0.3629; TR-FRET signal at compound concentration 7.92001 nM (CDK12–cyclin K and DDB1; compound concentration 7.92001 nM, raw titration data): 0.6777 and 0.6662 and 0.6266; TR-FRET signal at compound concentration 15.84 nM (CDK12–cyclin K and DDB1; compound concentration 15.84 nM, raw titration data): 1.124 and 1.123 and 1.094; TR-FRET signal at compound concentration 30.96 nM (CDK12–cyclin K and DDB1; compound concentration 30.96 nM, raw titration data): 2.005 and 1.92 and 1.844; TR-FRET signal at compound concentration 62.6401 nM (CDK12–cyclin K and DDB1; compound concentration 62.6401 nM, raw titration data): 3.017 and 2.942 and 2.921; TR-FRET signal at compound concentration 125.28 nM (CDK12–cyclin K and DDB1; compound concentration 125.28 nM, raw titration data): 3.528 and 3.596 and 3.608; TR-FRET signal at compound concentration 244.8 nM (CDK12–cyclin K and DDB1; compound concentration 244.8 nM, raw titration data): 3.609 and 3.755 and 3.8349; TR-FRET signal at compound concentration 993.601 nM (CDK12–cyclin K and DDB1; compound concentration 993.601 nM, raw titration data): 3.693 and 3.913 and 3.885; TR-FRET signal at compound concentration 2001.6 nM (CDK12–cyclin K and DDB1; compound concentration 2001.6 nM, raw titration data): 3.507 and 3.702 and 3.683 |
| CC[C@H](CO)Nc1nc(NCCCC2CCCC2)c2ncn(C(C)C)c2n1 [DS33] |  |  |  |  |  |  |  |  |  |  |  |  | 1270 nM |  |  | 1270 nM | 0.2064 and 0.239 | 0.2251 and 0.2479 | > 10000 nM | 0% | TR-FRET signal, individual replicate (CDK12–cyclin K and DDB1; compound concentration 36 nM): 0.2332 and 0.272; TR-FRET signal, individual replicate (CDK12–cyclin K and DDB1; [16]): 0.2704 and 0.303; TR-FRET signal, individual replicate (CDK12–cyclin K and DDB1; [17]): 0.3276 and 0.3592; TR-FRET signal, individual replicate (CDK12–cyclin K and DDB1; [18]): 0.4277 and 0.464; TR-FRET signal, individual replicate (CDK12–cyclin K and DDB1; [19]): 0.5723 and 0.6562; TR-FRET signal, individual replicate (CDK12–cyclin K and DDB1; [20]): 0.7875 and 0.9047; TR-FRET signal, individual replicate (CDK12–cyclin K and DDB1; compound concentration 2448 nM): 1.007 and 1.15; TR-FRET signal, individual replicate (CDK12–cyclin K and DDB1; [21]): 1.305 and 1.477; TR-FRET signal, individual replicate (CDK12–cyclin K and DDB1; [22]): 1.367 and 1.47; DC50 [1, 23]: > 10000 nM |
